A value given as a limit tells only on which side of the number the result lay.

Series [1] in a line: Reduction of spontaneous motor activity in mice. The class given is in vivo. Particulars: oral.
Series [2] is described as follows: Lethal toxicity (ALD50) and first signs of pharmacologic activity (ATD50) in mice. Particulars: mouse, in vivo, oral, groups of 10, given as part of ALD50/ATD50 ratio; for TD50: read-out: ATD50 (dose at which signs of pharmacologic activity are first evidenced). The method, then: In groups of 10 mice treated variously with geometrically increasing doses of test compound of from 125 mg./kg. to 2,000 mg./kg., the lethal toxicity (ALD50) and the dose at which signs of pharmacologic activity are first evidenced (ATD50) can be estimated. […] The ALD50 /ATD50 ratio (mg. per kg. body wt./mg. per kg. body wt.) for the compound of Procedure 4 is 2,000/125-250 and for that of Procedure 6 is >2,000/8-15.7. The ratio for trazodone is 940/2-4. Thus, the present substances have less than one-half the lethal toxicity of trazodone and from less than one-half to one-fiftieth the propensity for producing overt signs of physiological effect (ATD50) on oral administration to mice. More particularly, the present substances exert less of a depressant effect on the central nervous system as reflected by less deficit in motor coordination, less interference with normal motor activity, and less analgetic effect than trazodone. Laboratory test data with respect to these properties are arranged below.

A short description of series [3]: Mouse, tail clip (analgetic). In kind it is in vivo. Conditions: oral. The text has this:
^1 Bianchi, et al., Brit. J. of Pharmacology 9, 280 (1954).

Series [4] in a line: Inhibition of pernicious preening in mice (antipsychotic or analgetic). In kind it is in vivo. Conditions: Mus musculus, oral, read-out: ED50, inhibition of pernicious preening (anti psychotic or analgetic). The text has this:
Inhibition of pernicious
psychotic or analgetic)^6
^6 Wilfon, et al., Federation Proceedings 19, 21 (1960).

Series [5] is described as follows: CNS depression in mice: antagonism of foot shock induced aggression. Particulars: Mus musculus, oral. In kind it is in vivo. From the text:
Antagonism of foot shock
^5 Tedeschi, et al., J. Pharmacol. & Exptl. Ther. 125, 28 (1959).

A short description of series [6]: Rotorod method for motor incordination in mice. In kind it is in vivo. Conditions: oral. From the text: Rotorod method for motor
^4 Kinnaird, et al., J. Pharmacol. & Exptl.
Cutting, et al., Archives Int. Pharmacodyn.

Series [7] is described as follows: Prevention of reserpine ptosis in mice (oral pretreatment). The class given is in vivo. Conditions: Mus musculus, test drug oral (per os) before reserpine 2.0 mg./kg. intravenously.
Series [8] in a line: Reduction of phenylquinone writhing in mice (analgetic). In kind it is in vivo. Conditions: Mus musculus, oral. From the text: Reduction of phenylquinone
^2 Hendershot, et al., J. Pharmcol. & Exptl. Ther. 125, 237 (1959).

A short description of series [9]: Suppression of conditioned avoidance response. In kind it is in vivo. Particulars: oral; for suppression of conditioned avoidance response, activity in words: at 100 mg/kg. The text has this: |Suppression of conditioned |avoidance response | ^7 Albert, et al., Pharmacologist 4, 152 (1962).
For series [10] the following is noted: clinical use, vs imipramine; cited from earlier work.
The conditions of series [11]: various animal tests, U.S. Pat. No. 3,381,009; cited from earlier work.

Take `O=c1n(CCCN2CCN(c3cccc(Cl)c3)CC2)nc2ccc3ccccc3n12` [Procedure 4, 2-[3-[4-(3-Chlorophenyl)-1-piperazinyl]propyl]-1,2,4-triazolo[4,3-a]quinolin-3(2H)-one]: the “AED-0.3, reduction of spontaneous motor activity” value in series [1] was 80 mg/kg. The LD50 in series [2] stood at 2000 mg/kg. Besides, the TD50 in [2] is 125 to 250 mg/kg. In addition, the ED50 is 200 mg/kg in series [3]; 24 mg/kg in series [4]; 54 mg/kg in [5]; 29 mg/kg in series [7]; 40.5 mg/kg in series [8]. The “Rotorod method for motor incordination, activity in words” value in series [6] (at 800 (mg./kg.)) was “inactive”. Also, the “suppression of conditioned avoidance response, activity in words” value in series [9] was “inactive”.

As to `Cc1cc2nn(CCCN3CCN(c4cccc(Cl)c4)CC3)c(=O)n2c2ccccc12` [Procedure 6], the “reduction of spontaneous motor activity, activity in words” value in series [1] (at 20, 40, & 80 (mg./kg.)) was “inactive”. In addition, in [2], the LD50 was greater than 2000 mg/kg. In addition, in series [2], the TD50 is 8 to 15.7 mg/kg. For the same compound, the “tail clip (analgetic), activity in words” value in series [3] (at 200 (mg./kg.)) is “inactive”. Moreover, the 50% effective dose (ED50) in [4] was found to be 62 mg/kg; in [5], 36.5 mg/kg; in series [7], 27 mg/kg; in series [8], 51.8 mg/kg. For the same compound, in [9], the “suppression of conditioned avoidance response, activity in words” value was “inactive”.

Regarding `O=c1n(CCCN2CCN(c3cccc(Cl)c3)CC2)nc2ccccn12` [trazodone, 2-[3-[4-(3-chlorophenyl)-1-piperazinyl]propyl]-1,2,4-triazolo[4,3-a]pyridin-3(2H)-one, reference compound], the “AED-0.3, reduction of spontaneous motor activity” value in series [1] stood at 15.3 mg/kg. In addition, in series [10], the “clinical antidepressant effectiveness and side effects” value was “antidepressant equivalent in effectiveness to imipramine but with fewer side effects”. In addition, the median lethal dose (LD50) in series [2] was 940 mg/kg. Further, the TD50 in series [2] is 2 to 4 mg/kg; in series [6] (mouse, in vivo, read-out: ED50, Rotorod method for motor incordination) it was 44.4 mg/kg. For the same compound, the pharmacological actions result in series [11] was “tranquilizing action, hypotensive action, and analgesic action”. Moreover, the ED50 in [3] was found to be 55.5 mg/kg; in [4], 43 mg/kg; in [5] it was 22.2 mg/kg; in series [7], 36 mg/kg; in series [8] it was 21.8 mg/kg; in [9], 131 mg/kg.

One may read the LD50 as the dose expected to kill half of the subjects tested. As a reminder, the ED50 is the dose that gives a 50% effect, or the effect in half of the subjects.

Source of the values: patent publication US4252806A, “Triazoloquinolones” (Mead Johnson & Company, priority 1979, dated 1981).
